Data taken from paper PMC11458808, “Identification and development of a series of disubstituted piperazines for the treatment of Chagas disease” (European Journal of Medicinal Chemistry, 2022).
In brackets after ≈: the same amount, converted by molar mass.

Key:
[1] = tested on: intracellular T. cruzi X10/7 A1 amastigotes; test: Intracellular T. cruzi assay; format: cell-based, Trypanosoma cruzi; details: for EC50: Trypanosoma cruzi, read-out: T. cruzi (pEC50) (converted); for Activity in the intracellular T. cruzi assay (in words): purified compound
Description: 1.1 Intracellular T. cruzi assay: Potency against intracellular T. cruzi X10/7 A1 amastigotes was determined as described previously with as sole modification that the compound treatment duration was increased from 72h to 96h.

[2] = ChromLogD pH7.4 (chromatographic hydrophobicity index); format: physicochemical; details: pH 7.4, CHIpH7.4 × 0.0857–2; for chromatographic logD: read-out: ChromlogDpH7.4
[3] = Intrinsic clearance in mouse liver microsomes; format: in vitro ADME; details: for Mouse CLi: mouse liver microsomal intrinsic clearance
Description: 2.2 Intrinsic clearance: This assay was conducted as previously described in [5].

[4] = Aqueous (kinetic) solubility by CAD; format: physicochemical; details: kinetic solubility measured by CAD
Description: 2.1 Aqueous solubility: This assay was conducted as previously described in [4].

[5] = potency against intracellular T. cruzi amastigotes, at least three independent replicates, standard deviations ≤0.2

Row | SMILES | chromatographic logD [2] | Mouse CLi [3] [mL/min/g] | solubility [4] [µM] | T. cruzi (pEC50) [1, 5] | ChromlogDpH7.4 [2] | Clearance (mouse liver microsomal) ([3]; mouse, microsomes) [mL/min/g] | EC50 [1, 5] [µM] | Activity in the intracellular T. cruzi assay (in words) [1]
1 | CC#CC(=O)N1CCN(Cc2ccc(NS(=O)(=O)c3ccc(C)cc3)cc2)CC1 [Compound 26, N-(4-((4-(but-2-ynoyl)piperazin-1-yl)methyl)phenyl)-4-methylbenzenesulfonamide] | 4.4 | >50 | 367 (≈ 151 µg/mL) |  |  |  | > 50.1 | inactive
2 | COc1ccc(S(=O)(=O)Nc2ccc(OC3CCN(C(=O)c4cccc(Cl)c4)CC3)cc2)cc1 [Compound 28, N-(4-((1-(3-chlorobenzoyl)piperidin-4-yl)oxy)phenyl)-4-methoxybenzenesulfonamide] | 5.9 | 37 | < 1 |  |  |  | 5.01 | 
3 | COc1ccc(S(=O)(=O)Nc2ccc(Cn3cc4c(n3)CN(C(=O)c3cccc(Cl)c3)C4)cc2)cc1 [Compound 29] |  | 12 | 19 (≈ 9.94 µg/mL) | 4.9 | 5.0 | 12 |  | 
4 | COc1ccc(S(=O)(=O)Nc2ccc(CN3CC[C@H](NC(=O)c4cccc(Cl)c4)C3)cc2)cc1 [Compound 30, (S)-3-chloro-N-(1-(4-((4-methoxyphenyl)sulfonamido)benzyl)pyrrolidin-3-yl)benzamide] | 5.1 | >50 | 51 (≈ 25.5 µg/mL) |  |  |  | 50.1 | 
5 | Cc1ccc(S(=O)(=O)Nc2ccc(CN[C@H]3CCN(C(=O)c4cccc(Cl)c4)C3)cc2)cc1 [Compound 31, (S)-N-(4-(((1-(3-chlorobenzoyl)pyrrolidin-3-yl)amino)methyl)phenyl)-4-methylbenzenesulfonamide] | 4.9 | >50 | 72 (≈ 34.8 µg/mL) |  |  |  | 10 | 
6 | Cc1ccc(S(=O)(=O)Nc2ccc(CN[C@@H]3CCN(C(=O)c4cccc(Cl)c4)C3)cc2)cc1 [Compound 32, (R)-N-(4-(((1-(3-chlorobenzoyl)pyrrolidin-3-yl)amino)methyl)phenyl)-4-methylbenzenesulfonamide] | 4.9 | 48 | 75 (≈ 36.3 µg/mL) |  |  |  | 15.8 | 
7 | Cc1ccc(S(=O)(=O)Nc2ccc(CN(C)[C@H]3CCN(C(=O)c4cccc(Cl)c4)C3)cc2)cc1 [Compound 33, (S)-N-(4-(((1-(3-chlorobenzoyl)pyrrolidin-3-yl)(methyl)amino)methyl)phenyl)-4-methylbenzenesulfonamide] | 5.7 | >50 | 27 (≈ 13.4 µg/mL) |  |  |  | 6.31 | 
8 | Cc1ccc(S(=O)(=O)Nc2ccc(CN3C[C@@H]4CN(C(=O)c5cccc(Cl)c5)C[C@@H]4C3)cc2)cc1 [Compound 35, N-(4-(((3aR,6aS)-5-(3-chlorobenzoyl)hexahydropyrrolo[3,4-c]pyrrol-2(1H)-yl)methyl)phenyl)-4-methylbenzenesulfonamide] | 5.8 | >50 | 25 (≈ 12.8 µg/mL) |  |  |  | 6.31 | 

Now from value to compound, other results behind:

Row | chromatographic logD [2] | Mouse CLi [3] [mL/min/g] | solubility [4] [µM] | T. cruzi (pEC50) [1, 5] | ChromlogDpH7.4 [2] | Clearance (mouse liver microsomal) ([3]; mouse, microsomes) [mL/min/g] | SMILES | EC50 [1, 5] [µM] | Activity in the intracellular T. cruzi assay (in words) [1]
9 | 5.6 | 25 | 18 (≈ 8.71 µg/mL) |  |  |  | Cc1ccc(S(=O)(=O)Nc2ccc(NC3CCN(C(=O)c4cccc(Cl)c4)CC3)cc2)cc1 [Compound 36, N-(4-((1-(3-chlorobenzoyl)piperidin-4-yl)amino)phenyl)-4-methylbenzenesulfonamide] | 20 | 
10 | 5.3 | 37 | 42 (≈ 20.9 µg/mL) |  |  |  | Cc1ccc(S(=O)(=O)Nc2ccc(CN3CCC(NC(=O)c4cccc(Cl)c4)CC3)cc2)cc1 [Compound 37, 3-chloro-N-(1-(4-((4-methylphenyl)sulfonamido)benzyl)piperidin-4-yl)benzamide] | 3.16 | 
11 | 4.8 | >50 | 70 (≈ 32.9 µg/mL) |  |  |  | Cc1ccc(S(=O)(=O)Nc2ccc(CNC3CN(C(=O)c4cccc(Cl)c4)C3)cc2)cc1 [Compound 38, N-(4-(((1-(3-chlorobenzoyl)azetidin-3-yl)amino)methyl)phenyl)-4-methylbenzenesulfonamide] | 12.6 | 
12 | 5.1 | >50 | 47 (≈ 24.1 µg/mL) |  |  |  | COc1ccc(S(=O)(=O)Nc2ccc(CN3C[C@@H]4C[C@H]3CN4C(=O)c3cccc(Cl)c3)cc2)cc1 [Compound 39, N-(4-(((1S,4S)-5-(3-chlorobenzoyl)-2,5-diazabicyclo[2.2.1]heptan-2-yl)methyl)phenyl)-4-methoxybenzenesulfonamide] | 15.8 | 
13 | 5.5 | >50 | 35 (≈ 18 µg/mL) |  |  |  | COc1ccc(S(=O)(=O)Nc2ccc(CCN3CCN(C(=O)c4cccc(Cl)c4)CC3)cc2)cc1 [Compound 40, N-(4-(2-(4-(3-chlorobenzoyl)piperazin-1-yl)ethyl)phenyl)-4-methoxybenzenesulfonamide] | 5.01 | 
14 | 1.9 | 0.6 | ≥ 404 |  |  |  | COc1ccc(S(=O)(=O)Nc2nnc(CN3CCN(C(=O)c4cccc(Cl)c4)CC3)o2)cc1 [Compound 41, N-[5-[[4-(3-chlorobenzoyl)piperazin-1-yl]methyl]-1,3,4-oxadiazol-2-yl]-4-methoxy-benzenesulfonamide] | > 50.1 | inactive
15 | 3.1 | 1.0 | ≥ 345 |  |  |  | COc1ccc(S(=O)(=O)Nc2ncc(CN3CCN(C(=O)c4cccc(Cl)c4)CC3)cn2)cc1 [Compound 42, N-(5-((4-(3-chlorobenzoyl)piperazin-1-yl)methyl)pyrimidin-2-yl)-4-methoxybenzenesulfonamide] | > 50.1 | lacked any activity
16 | 2.9 | 1.5 | ≥ 474 |  |  |  | COc1ccc(S(=O)(=O)Nc2cnc(CN3CCN(C(=O)c4cccc(Cl)c4)CC3)nc2)cc1 [Compound 43, N-(2-((4-(3-chlorobenzoyl)piperazin-1-yl)methyl)pyrimidin-5-yl)-4-methoxybenzenesulfonamide] | > 50.1 | lacked any activity
17 | 4.5 | 39 | ≥ 373 |  |  |  | COc1ccc(S(=O)(=O)Nc2ccc(CN3CCN(C(=O)c4cccc(Cl)c4)CC3)nc2)cc1 [Compound 44, N-(6-((4-(3-chlorobenzoyl)piperazin-1-yl)methyl)pyridin-3-yl)-4-methoxybenzenesulfonamide] | 7.94 | 
18 | 2.8 | 1.3 | ≥ 414 |  |  |  | COc1ccc(S(=O)(=O)Nc2cnc(CN3CCN(C(=O)c4cccc(Cl)c4)CC3)cn2)cc1 [Compound 45, N-(5-((4-(3-chlorobenzoyl)piperazin-1-yl)methyl)pyrazin-2-yl)-4-methoxybenzenesulfonamide] | > 50.1 | lacked any activity
19 | 4 | 1.2 | ≥ 443 |  |  |  | COc1ccc(S(=O)(=O)Nc2ncc(CN3CCN(C(=O)c4cccc(Cl)c4)CC3)nc2OC)cc1 [Compound 46, N-(5-((4-(3-chlorobenzoyl)piperazin-1-yl)methyl)-3-methoxypyrazin-2-yl)-4-methoxybenzenesulfonamide] | > 50.1 | lacked any activity
